Assay results taken from PMC11550483 (2024).

The compounds below were run against SARS2 M^pro (Severe acute respiratory syndrome coronavirus 2, UniProt P0DTD1, P3395H).
Format: biochemical, SARS-CoV-2
In the case of `Cc1cccc(OCCNC(=O)C(C)Cl)c1` (stereo not drawn), the “M^pro inhibition activity (in words)” value is reported as “lost all activity”.
For `CC(C)(C)NC(=O)N[C@H](C(=O)N1C[C@H]2[C@@H]([C@H]1C(=O)NC(CC1CCC1)C(=O)C(N)=O)C2(C)C)C(C)(C)C` (stereo partly drawn) [Boceprevir, reference compound], the “% inhibition (20 µM) biochemical” value was 73.0971%.
In the case of `O=C(CCCN1C(=O)/C(=C\c2ccco2)SC1=S)Nc1cc(Cl)ccc1O` [MWAC-0000351, Oc1ccc(Cl)cc1NC(=O)CCCN2C(=S)S\C(=C\c3occc3)\C2=O], the “% inhibition (20 µM) biochemical” value is reported as 2.86%.
In the case of `Cc1nn(CC(=O)NCc2ccc3c(c2)OCO3)c(=O)c2c1cnn2C(C)(C)C` [MWAC-0000539, CC1=NN(CC(=O)NCc2ccc3OCOc3c2)C(=O)c4c1cnn4C(C)(C)C], the “% inhibition (20 µM) biochemical” value is reported as 19%.
In the case of `COc1cccc(NC(=O)Cn2c(=O)n(C)c(=O)n(-c3ccc(Oc4ccc(SC(F)(F)F)cc4)c(C)c3)c2=O)c1` [MWAC-0001087, COc1cccc(NC(=O)CN2C(=O)N(C)C(=O)N(C2=O)c3ccc(Oc4ccc(SC(F)(F)F)cc4)c(C)c3)c1], the “% inhibition (20 µM) biochemical” value is reported as 3%.
`O=S(=O)(O)CCCN1/C(=C/C=C2\CCC(/C=C/c3sc4ccccc4[n+]3CCCS(=O)(=O)O)=C2N(c2ccccc2)c2ccccc2)Sc2ccccc21` [MWAC-0001204, OS(=O)(=O)CCCN1\C(=C\C=C\2/CCC(=C2N(c3ccccc3)c4ccccc4)\C=C\c5sc6ccccc6[n+]5CCCS(=O)(=O)O)\Sc7ccccc17] was tested, and the “% inhibition (20 µM) biochemical” value was 8%.
In the case of `Cc1ccc2nc(-c3ccc(NC(=O)CCOc4ccccc4)cc3)sc2c1` [MWAC-0001713, Cc1ccc2nc(sc2c1)c3ccc(NC(=O)CCOc4ccccc4)cc3], the “% inhibition (20 µM) biochemical” value is reported as 14%.
`CCOc1ccc2nc(SC3CC(=O)N(c4ccccc4C(F)(F)F)C3=O)sc2c1` (stereo not drawn) [MWAC-0001714, CCOc1ccc2nc(SC3CC(=O)N(C3=O)c4ccccc4C(F)(F)F)sc2c1] was tested, and the “% inhibition (20 µM) biochemical” value was 6%.
In the case of `Cc1cc(C)c2oc(-c3ccc(C)c(N)c3)nc2c1` [MWAC-0001715, Cc1cc(C)c2oc(nc2c1)c3ccc(C)c(N)c3], the “% inhibition (20 µM) biochemical” value is reported as 0%.
`Fc1cccc(/N=c2\oc3ccccc3cc2-c2nc3ccccc3[nH]2)c1` [MWAC-0001716, Fc1cccc(c1)\N=C\2/Oc3ccccc3C=C2c4nc5ccccc5[nH]4] was tested, and the “% inhibition (20 µM) biochemical” value was 0%.
`O=C(Nc1ccc(Cl)cc1)N1CCc2ccccc21` [MWAC-0001717, Clc1ccc(NC(=O)N2CCc3ccccc23)cc1] was tested, and the “% inhibition (20 µM) biochemical” value was 6%.
In the case of `CCOc1ccccc1C1Nc2ccccc2NC2=C1C(=O)CC(c1ccccc1)C2` (stereo not drawn) [MWAC-0001718, CCOc1ccccc1C2Nc3ccccc3NC4=C2C(=O)CC(C4)c5ccccc5], the “% inhibition (20 µM) biochemical” value is reported as 0%.
With `COc1ccc(C2=NN3C(C2)c2ccccc2OC3c2ccc(C(C)(C)C)cc2)cc1` (stereo not drawn) [MWAC-0001719, COc1ccc(cc1)C2=NN3C(C2)c4ccccc4OC3c5ccc(cc5)C(C)(C)C] the “% inhibition (20 µM) biochemical” value was 5%.
For `CCOc1ccccc1C1Nc2ccccc2NC2=C1C(=O)CC(c1ccc3c(c1)OCO3)C2` (stereo not drawn) [MWAC-0001720, CCOc1ccccc1C2Nc3ccccc3NC4=C2C(=O)CC(C4)c5ccc6OCOc6c5], the “% inhibition (20 µM) biochemical” value was 0%.
`COc1ccc2ccccc2c1/C=C1/S/C(=N/c2ccccc2Cl)NC1=O` [MWAC-0001721, COc1ccc2ccccc2c1\C=C/3\S\C(=N\c4ccccc4Cl)\NC3=O] was tested, and the “% inhibition (20 µM) biochemical” value was 6%.
In the case of `CC(C)(C)N1C(=O)c2ccc(C(=O)Nc3cccc(O)c3)cc2C1=O` [MWAC-0001722, CC(C)(C)N1C(=O)c2ccc(cc2C1=O)C(=O)Nc3cccc(O)c3], the “% inhibition (20 µM) biochemical” value is reported as 5.66%.
`Cc1ccc(-c2cn3ccc4ccccc4c3n2)cc1` [MWAC-0001723, Cc1ccc(cc1)c2cn3ccc4ccccc4c3n2] was tested, and the “% inhibition (20 µM) biochemical” value was 8%.
In the case of `COc1ccc(C2=NN3C(C2)c2ccccc2OC3C(C)C)cc1` (stereo not drawn) [MWAC-0001724, COc1ccc(cc1)C2=NN3C(Oc4ccccc4C3C2)C(C)C], the “% inhibition (20 µM) biochemical” value is reported as 7%.
In the case of `Fc1nc(F)c(F)c(SC(=S)N2CCOCC2)c1F` [MWAC-0001725, Fc1nc(F)c(F)c(SC(=S)N2CCOCC2)c1F], the “% inhibition (20 µM) biochemical” value is reported as 3.69%.
`COc1ccccc1-c1cc(C(F)(F)F)nc(S(=O)(=O)CCCC(=O)Nc2c(F)cc(F)cc2Br)n1` [MWAC-0001726, COc1ccccc1c2cc(nc(n2)S(=O)(=O)CCCC(=O)Nc3c(F)cc(F)cc3Br)C(F)(F)F] was tested, and the “% inhibition (20 µM) biochemical” value was 43%.
In the case of `O=C1C(=O)N(Cc2ccc([N+](=O)[O-])cc2)c2ccc(Br)cc21` [MWAC-0001727, [O-][N+](=O)c1ccc(CN2C(=O)C(=O)c3cc(Br)ccc23)cc1], the “% inhibition (20 µM) biochemical” value is reported as 65%.
With `CC1=C(C(=O)OC(C)C)C(c2ccsc2)C2=C(CC(c3cccs3)CC2=O)N1` (stereo not drawn) [MWAC-0001728, CC(C)OC(=O)C1=C(C)NC2=C(C1c3ccsc3)C(=O)CC(C2)c4cccs4] the “% inhibition (20 µM) biochemical” value was 0%.
`CC1=C(C(=O)OC(C)C)C(c2ccc(F)cc2)C2=C(CC(c3cccs3)CC2=O)N1` (stereo not drawn) [MWAC-0001729, CC(C)OC(=O)C1=C(C)NC2=C(C1c3ccc(F)cc3)C(=O)CC(C2)c4cccs4] was tested, and the “% inhibition (20 µM) biochemical” value was 0%.
For `C#CCN1C(=O)C(O)(CC(=O)c2ccc(F)cc2)c2ccccc21` (stereo not drawn) [MWAC-0001730, OC1(CC(=O)c2ccc(F)cc2)C(=O)N(CC#C)c3ccccc13], the “% inhibition (20 µM) biochemical” value was 8%.
For `C#CCN1C(=O)C(O)(CC(=O)c2ccc(Cl)cc2)c2ccccc21` (stereo not drawn) [MWAC-0001731, OC1(CC(=O)c2ccc(Cl)cc2)C(=O)N(CC#C)c3ccccc13], the “% inhibition (20 µM) biochemical” value was 5%.
`Cc1cc(=O)oc2c(C)c(OCc3ccccc3)ccc12` [MWAC-0001732, CC1=CC(=O)Oc2c(C)c(OCc3ccccc3)ccc12] was tested, and the “% inhibition (20 µM) biochemical” value was 7%.
With `CCc1ccc(C2CC(c3ccc(OC)c(OC)c3)=NN2C(C)=O)cc1` (stereo not drawn) [MWAC-0001733, CCc1ccc(cc1)C2CC(=NN2C(=O)C)c3ccc(OC)c(OC)c3] the “% inhibition (20 µM) biochemical” value was 7%.
With `Cc1cccc(/N=C2/NC(=O)/C(=C\c3ccc(N(C)C)cc3)S2)c1` [MWAC-0001734, CN(C)c1ccc(\C=C/2\S\C(=N/c3cccc(C)c3)\NC2=O)cc1] the “% inhibition (20 µM) biochemical” value was 9%.
For `COC(=O)CSC1=C(C#N)C(c2ccccc2OC)CC(=O)N1` (stereo not drawn) [MWAC-0001735, COC(=O)CSC1=C(C#N)C(CC(=O)N1)c2ccccc2OC], the “% inhibition (20 µM) biochemical” value was 4.32%.
`CCOC(=O)CS(=O)(=O)c1ccc(C(=O)N2CCN(C(=O)c3ccco3)CC2)cc1[N+](=O)[O-]` [MWAC-0001736, CCOC(=O)CS(=O)(=O)c1ccc(cc1[N+](=O)[O-])C(=O)N2CCN(CC2)C(=O)c3occc3] was tested, and the “% inhibition (20 µM) biochemical” value was 14%.
`CCOC(=O)c1[nH]c(C)c(C(=O)Nc2ccccc2SC)c1C` [MWAC-0001737, CCOC(=O)c1[nH]c(C)c(C(=O)Nc2ccccc2SC)c1C] was tested, and the “% inhibition (20 µM) biochemical” value was 3.56%.
`C=CCN1C(=O)C(O)(CC(=O)c2ccc(C)cc2)c2cc(Br)ccc21` (stereo not drawn) [MWAC-0001738, Cc1ccc(cc1)C(=O)CC2(O)C(=O)N(CC=C)c3ccc(Br)cc23] was tested, and the “% inhibition (20 µM) biochemical” value was 4.69%.
For `COc1cccc(-c2cc(C(=O)N3CCCCC3C)no2)c1` (stereo not drawn) [MWAC-0001739, COc1cccc(c1)c2onc(c2)C(=O)N3CCCCC3C], the “% inhibition (20 µM) biochemical” value was 2.35%.
`Cc1ccc(Cl)cc1-n1c(SCc2ccccc2Cl)nc2[nH]ncc2c1=O` [MWAC-0001740, Cc1ccc(Cl)cc1N2C(=Nc3[nH]ncc3C2=O)SCc4ccccc4Cl] was tested, and the “% inhibition (20 µM) biochemical” value was 9%.
`CC(=O)N(/N=C1\Sc2ccccc2C1=O)c1ccccc1C` [MWAC-0001741, CC(=O)N(\N=C\1/Sc2ccccc2C1=O)c3ccccc3C] was tested, and the “% inhibition (20 µM) biochemical” value was 36%.
With `CCCCOC(=O)c1c(C)oc2ccc(NS(=O)(=O)c3ccc(OC)cc3)cc12` [MWAC-0001742, CCCCOC(=O)c1c(C)oc2ccc(NS(=O)(=O)c3ccc(OC)cc3)cc12] the “% inhibition (20 µM) biochemical” value was 11%.
With `COc1cccc(C(=O)NN2C(=S)N(c3ccccc3)C(=O)C2CC(N)=O)c1` (stereo not drawn) [MWAC-0001743, COc1cccc(c1)C(=O)NN2C(CC(=O)N)C(=O)N(C2=S)c3ccccc3] the “% inhibition (20 µM) biochemical” value was 6%.
With `CCCCN1C(=O)C(O)(CC(=O)c2cccc(OC)c2)c2cc(Br)ccc21` (stereo not drawn) [MWAC-0001744, CCCCN1C(=O)C(O)(CC(=O)c2cccc(OC)c2)c3cc(Br)ccc13] the “% inhibition (20 µM) biochemical” value was 10%.
With `CCOc1ccccc1C1CC(c2ccccc2)Nc2ncnn21` (stereo not drawn) [MWAC-0001745, CCOc1ccccc1C2CC(Nc3ncnn23)c4ccccc4] the “% inhibition (20 µM) biochemical” value was 5.37%.
In the case of `CN(C)c1ccc(/C=N\Nc2cn[nH]c(=O)c2Cl)cc1` [MWAC-0001746, CN(C)c1ccc(\C=N/NC2=C(Cl)C(=O)NN=C2)cc1], the “% inhibition (20 µM) biochemical” value is reported as 15%.
`Cc1c(C(=O)N2CCCCC2C)sc2nc(-c3ccc(F)cc3)cn12` (stereo not drawn) [MWAC-0001747, CC1CCCCN1C(=O)c2sc3nc(cn3c2C)c4ccc(F)cc4] was tested, and the “% inhibition (20 µM) biochemical” value was 5.44%.
`CC(C)c1cc(C(=O)Nc2ccc(Br)cc2)no1` [MWAC-0001748, CC(C)c1onc(c1)C(=O)Nc2ccc(Br)cc2] was tested, and the “% inhibition (20 µM) biochemical” value was 6%.
With `Cc1ccccc1-c1noc(-c2ccc(O)cc2)n1` [MWAC-0001749, Cc1ccccc1c2noc(n2)c3ccc(O)cc3] the “% inhibition (20 µM) biochemical” value was 9%.
For `CCN1C(=O)C(=O)c2cc(Cl)ccc21` [MWAC-0001750, CCN1C(=O)C(=O)c2cc(Cl)ccc12], the “% inhibition (20 µM) biochemical” value was 10%.
With `COc1ccc(C2(C)CC(C)(C)N(C(C)=O)c3ccccc32)cc1` (stereo not drawn) [MWAC-0001751, COc1ccc(cc1)C2(C)CC(C)(C)N(C(=O)C)c3ccccc23] the “% inhibition (20 µM) biochemical” value was 4.45%.
`CCCN1C(=O)C(O)(CC(=O)c2cc(OC)ccc2OC)c2cc(Br)ccc21` (stereo not drawn) [MWAC-0001752, CCCN1C(=O)C(O)(CC(=O)c2cc(OC)ccc2OC)c3cc(Br)ccc13] was tested, and the “% inhibition (20 µM) biochemical” value was 33%.
For `CCOc1ccc(C2NC(=O)c3[nH]nc(-c4cccc(OC)c4)c32)cc1` (stereo not drawn) [MWAC-0001753, CCOc1ccc(cc1)C2NC(=O)c3[nH]nc(c4cccc(OC)c4)c23], the “% inhibition (20 µM) biochemical” value was 18%.
In the case of `O=C1NC(=O)C(=Cc2cc(O)ccc2Br)C(=O)N1` [MWAC-0001754, Oc1ccc(Br)c(C=C2C(=O)NC(=O)NC2=O)c1], the “% inhibition (20 µM) biochemical” value is reported as 21%.
